Read-outs that look alike come from different tables or passages of the source.
Key:
[1] = molecular target: T1, human PI3Kα protein (Homo sapiens, UniProt P42336); experiment: PI3Kα enzyme assay (ADP-Glo); type: biochemical; settings: read-out: PI3Kα enzyme inhibitory activity
T1 construct: purchased Carna Biosciences, Inc; host or cells: baculovirus expression system
Summary of the method: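 Biotinylated human PI3Kα (baculovirus-expressed, 4.5 nmol/L) pre-incubated 15 min with compound in Tris-HCl pH 7.5, MgCl2, BSA; reaction 60 min at 25° C with 50 μmol/L PIP2 and 100 μmol/L ATP final. ADP quantified by ADP-Glo luminescence; IC50 calculated.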

[2] = molecular target: T2, GST fusion human ERK2 protein (Homo sapiens, UniProt P28482); experiment: ERK2 enzyme assay (2); type: biochemical; settings: read-out: ERK2 enzyme inhibitory activity (2)
T2 construct: purchased Carna Biosciences, Inc; host or cells: E. coli expression system
Summary of the method: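 GST-tagged human ERK2 expressed in E. coli (1.25 nmol/L) was preincubated with compound for 15 min at room temperature in pH 7.5 Hepes buffer with MgCl2, DTT and Brij35. Reaction with FL-Peptide 8 (final 4.25 μmol/L) and ATP (final 1 mmol/L) ran 120 min at 25 °C; EDTA stopped it, and phosphorylated peptide was quantified by mobility-shift separation to derive IC50.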

[3] = tested on: CHO-K1 cells; experiment: CHO cell toxicity test; type: cell-based, Chinese hamster; settings: Cricetulus griseus; CHO-K1 cells, 24 hours culture with compound, CellTiter-Glo; read-out: IC50 value (concentration at which the number of viable cells was suppressed to 50% or less)
Description: In a CHO cell toxicity test, the following was used.
Cell: CHO-K1 cells (derived from Chinese hamster ovary) Test medium: F-12 MEDIUM+FCS (manufactured by Biowest) having a final concentration of 2%
Detection reagent: CELLTITER-GLO™ LUMINESCENT CELL VIABILITY ASSAY (trade name, manufactured by PROMEGA Corporation)
The CHO-K1 cells were seeded in a 96-well microplate for culture at 5,000 cells/well, and cultured in a CO2 incubator (37° C.) for 24 hours. An evaluation compound (final concentration: from 25.00 μmol/L to 0.20 μmol/L, common ratio: […]) was added thereto, followed by culturing for 24 hours, and the number of viable cells was calculated from emission intensity by CELLTITER-GLO™ (trade name, manufactured by PROMEGA Corporation). In the measurement of the emission intensity, VARIOSKAN FLASH (manufactured by Thermo Fisher Scientific Inc.) was used.
Inhibition ratio (%)=100−(A/B)×100
A: Emission intensity in the presence of a test compound
B: Emission intensity in the absence of a test compound

T1 sequence (P42336 whole entry): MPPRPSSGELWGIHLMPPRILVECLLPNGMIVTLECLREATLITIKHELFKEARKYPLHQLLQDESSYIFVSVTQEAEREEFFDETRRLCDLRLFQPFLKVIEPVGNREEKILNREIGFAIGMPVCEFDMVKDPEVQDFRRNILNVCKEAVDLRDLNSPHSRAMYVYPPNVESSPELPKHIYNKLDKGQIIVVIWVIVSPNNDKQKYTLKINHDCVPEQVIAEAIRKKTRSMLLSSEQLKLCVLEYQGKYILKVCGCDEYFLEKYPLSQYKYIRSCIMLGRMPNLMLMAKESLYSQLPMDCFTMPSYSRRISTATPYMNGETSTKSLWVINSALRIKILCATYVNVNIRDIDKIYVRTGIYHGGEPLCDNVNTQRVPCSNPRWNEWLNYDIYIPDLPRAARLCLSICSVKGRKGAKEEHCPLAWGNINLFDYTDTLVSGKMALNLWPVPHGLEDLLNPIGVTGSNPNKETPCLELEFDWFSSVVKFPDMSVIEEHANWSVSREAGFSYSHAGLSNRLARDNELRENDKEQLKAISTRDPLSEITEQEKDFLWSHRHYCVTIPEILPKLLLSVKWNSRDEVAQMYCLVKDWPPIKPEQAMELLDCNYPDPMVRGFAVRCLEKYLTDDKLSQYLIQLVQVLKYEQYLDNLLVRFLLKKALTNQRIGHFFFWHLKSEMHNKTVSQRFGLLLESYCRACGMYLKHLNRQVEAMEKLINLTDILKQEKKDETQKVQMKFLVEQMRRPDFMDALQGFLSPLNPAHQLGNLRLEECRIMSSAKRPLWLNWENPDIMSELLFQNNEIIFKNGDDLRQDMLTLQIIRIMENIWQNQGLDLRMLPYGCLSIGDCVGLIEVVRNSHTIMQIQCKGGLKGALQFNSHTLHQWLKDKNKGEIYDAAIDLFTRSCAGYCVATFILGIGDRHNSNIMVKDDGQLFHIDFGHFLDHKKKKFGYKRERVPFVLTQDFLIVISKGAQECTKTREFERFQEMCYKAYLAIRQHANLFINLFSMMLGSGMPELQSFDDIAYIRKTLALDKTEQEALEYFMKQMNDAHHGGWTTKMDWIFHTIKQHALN
T1 sequence (P27986 whole entry partner): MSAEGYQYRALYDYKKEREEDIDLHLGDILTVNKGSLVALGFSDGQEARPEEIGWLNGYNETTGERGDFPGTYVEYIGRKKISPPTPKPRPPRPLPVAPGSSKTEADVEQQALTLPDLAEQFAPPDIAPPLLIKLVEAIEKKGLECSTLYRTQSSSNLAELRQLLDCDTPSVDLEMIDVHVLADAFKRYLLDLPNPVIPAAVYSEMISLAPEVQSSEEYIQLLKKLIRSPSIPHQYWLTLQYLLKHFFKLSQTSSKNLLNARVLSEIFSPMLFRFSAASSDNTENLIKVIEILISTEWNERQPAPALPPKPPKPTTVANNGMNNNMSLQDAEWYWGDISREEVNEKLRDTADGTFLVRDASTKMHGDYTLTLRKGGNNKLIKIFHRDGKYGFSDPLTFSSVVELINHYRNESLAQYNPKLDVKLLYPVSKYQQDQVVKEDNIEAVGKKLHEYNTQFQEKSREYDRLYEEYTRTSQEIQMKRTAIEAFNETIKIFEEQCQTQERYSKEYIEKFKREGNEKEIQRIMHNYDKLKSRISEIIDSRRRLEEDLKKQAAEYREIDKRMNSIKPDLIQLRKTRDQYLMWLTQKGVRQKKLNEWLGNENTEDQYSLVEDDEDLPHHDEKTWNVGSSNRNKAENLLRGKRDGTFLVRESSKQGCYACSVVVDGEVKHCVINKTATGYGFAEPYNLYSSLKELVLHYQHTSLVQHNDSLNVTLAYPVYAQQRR
T2 sequence (P28482 whole entry, the tested form may be a part): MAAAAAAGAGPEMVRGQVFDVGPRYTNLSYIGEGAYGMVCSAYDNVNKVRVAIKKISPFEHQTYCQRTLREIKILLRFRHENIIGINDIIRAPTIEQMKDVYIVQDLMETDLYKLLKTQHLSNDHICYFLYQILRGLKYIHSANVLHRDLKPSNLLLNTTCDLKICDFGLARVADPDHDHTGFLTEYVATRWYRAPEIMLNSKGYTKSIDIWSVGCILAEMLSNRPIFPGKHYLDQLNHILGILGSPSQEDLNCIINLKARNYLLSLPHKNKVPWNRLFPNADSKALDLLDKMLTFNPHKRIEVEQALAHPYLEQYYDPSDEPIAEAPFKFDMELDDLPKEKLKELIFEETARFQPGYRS

Compound	IC50 [1]	IC50 ([2]; ERK2 enzyme assay (2))	IC50 [3]	IC50 [2]
CC(C)c1cnnc(Nc2ccc3ncc(-c4cnn(CCCN5CCN(C)C(=O)C5)c4)cc3n2)c1 [Example 0723, 4-(3-(4-(6-((5-isopropylpyridazin-3-yl)amino)-1,5-naphthyridin-3-yl)-1H-pyrazol-1-yl)propyl)-1-methylpiperazin-2-one]	< 1 µM	< 1 µM	≥ 25 µM	–
CC(C)c1cnnc(Nc2ccc3ncc(-c4cn(C)nc4CF)cc3n2)c1 [Example 0626, 7-(3-(Fluoromethyl)-1-methyl-1H-pyrazol-4-yl)-N-(5-isopropylpyridazin-3-yl)-1,5-naphthyridine-2-amine]	< 1 µM	< 1 µM	≥ 25 µM	–
CCCc1cnnc(Nc2ccc3ncc(-c4cn(C)nc4C)cc3n2)c1 [Example 0919]	< 1 µM	–	≥ 25 µM	< 1 µM
CC(C)c1cnnc(Nc2ccc3ncc(-c4cnn(CCCN5C[C@@H](C)N[C@@H](C)C5)c4)cc3n2)c1 [Example 0439, 7-(1-(3-((3S,5R)-3,5-dimethylpiperazin-1-yl)propyl)-1H-pyrazol-4-yl)-N-(5-isopropylpyridazin-3-yl)-1,5-naphthyridine-2-amine]	< 1 µM	< 1 µM	≥ 25 µM	–
CC(C)c1cnnc(Nc2ccc3ncc(-c4cnn(CCCN5CC(C#N)C5)c4)cc3n2)c1 [Example 0686]	< 1 µM	< 1 µM	≥ 25 µM	–
CC(C)c1cnnc(Nc2ccc3ncc(-c4cnn(CC5CN(C)C5)c4)cc3n2)c1 [Example 0491]	< 1 µM	< 1 µM	≥ 25 µM	–
CC(C)c1cnnc(Nc2ccc3ncc(-c4cnn(CCCN5CC6(COC6)C5)c4)cc3n2)c1 [Example 0613]	< 1 µM	< 1 µM	≥ 25 µM	–
COc1ccc(-c2nn(C)cc2-c2cnc3ccc(Nc4cc(C(C)C)cnn4)nc3c2)cn1 [Example 0456]	< 1 µM	< 1 µM	≥ 25 µM	–
CC(C)c1cnnc(Nc2ccc3ncc(-c4cnn(CCCN5CC(N)C5)c4)cc3n2)c1 [Example 0695, 7-(1-(3-(3-aminoazetidin-1-yl)propyl)-1H-pyrazol-4-yl)-N-(5-isopropylpyridazin-3-yl)-1,5-naphthyridine-2-amine]	< 1 µM	< 1 µM	≥ 25 µM	–
CC(C)c1cnnc(Nc2ccc3ncc(-c4cnn(CCCN5CCC(F)CC5)c4)cc3n2)c1 [Example 0413, 7-(1-(3-(4-Fluoropiperidin-1-yl)propyl)-1H-pyrazol-4-yl)-N-(5-isopropylpyridazin-3-yl)-1,5-naphthyridine-2-amine]	< 1 µM	< 1 µM	≥ 25 µM	–
CC(C)c1cnnc(Nc2ccc3ncc(-c4cnn(CCCN5CCC(O)CC5)c4)cc3n2)c1 [Example 0430]	< 1 µM	< 1 µM	≥ 25 µM	–
CC(C)c1cnnc(Nc2ccc3ncc(-c4cnn(CCCN5CCO[C@@H](C)C5)c4)cc3n2)c1 [Example 0644]	< 1 µM	< 1 µM	≥ 25 µM	–
CC(C)c1cnnc(Nc2ccc3ncc(-c4cn(C)nc4-c4cccnc4)cc3n2)c1 [Example 0515]	< 1 µM	< 1 µM	≥ 25 µM	–
COC(CN1CCCC1)Cn1cc(-c2cnc3ccc(Nc4cc(C(C)C)cnn4)nc3c2)cn1 (stereo not drawn) [Example 0725, N-(5-isopropylpyridazin-3-yl)-7-(1-(2-methoxy-3-(pyrrolidin-1-yl)propyl)-1H-pyrazol-4-yl)-1,5-naphthyridine-2-amine]	< 1 µM	< 1 µM	≥ 25 µM	–
CC(C)c1cnnc(Nc2ccc3ncc(-c4cnn(Cc5ccc(N6CCOCC6)nc5)c4)cc3n2)c1 [Example 0462, N-(5-isopropylpyridazin-3-yl)-7-(1-((6-morpholinopyridin-3-yl)methyl)-1H-pyrazol-4-yl)-1,5-naphthyridine-2-amine]	< 1 µM	< 1 µM	≥ 25 µM	–
Cc1nn(CCCN2C[C@@H](C)O[C@@H](C)C2)cc1-c1cnc2ccc(Nc3cc(C(C)C)cnn3)nc2c1 [Example 0431]	< 1 µM	< 1 µM	≥ 25 µM	–
CC(C)c1cnnc(Nc2ccc3ncc(-c4cnn(CCCN5CCSCC5)c4)cc3n2)c1 [Example 0420]	< 1 µM	< 1 µM	≥ 25 µM	–
CC(C)c1cnnc(Nc2ccc3ncc(-c4cnn(CC(F)(F)F)c4)cc3n2)c1 [Example 0460]	< 1 µM	< 1 µM	≥ 25 µM	–

Compound	IC50 [1]	IC50 ([2]; ERK2 enzyme assay (2))	IC50 [3]	IC50 [2]
CC(C)c1cnnc(Nc2ccc3ncc(-c4cnn(CCCN5CCOC[C@H]5C)c4)cc3n2)c1 [Example 0649]	< 1 µM	< 1 µM	≥ 25 µM	–
CC(C)c1cnnc(Nc2ccc3ncc(-c4cn(C)nc4C4CC4)cc3n2)c1 [Example 0567]	< 1 µM	< 1 µM	≥ 25 µM	–
CC(C)c1cnnc(Nc2ccc3ncc(-c4cnn(CCCN5CCCOCC5)c4)cc3n2)c1 [Example 0665]	< 1 µM	< 1 µM	≥ 25 µM	–
CC(C)c1cnnc(Nc2ccc3ncc(-c4cnn(CCCS(C)(=O)=O)c4)cc3n2)c1 [Example 0550]	< 1 µM	< 1 µM	≥ 25 µM	–
CC(C)c1cnnc(Nc2ccc3ncc(-c4cnn(CC5CCN(C)CC5)c4)cc3n2)c1 [Example 0486, N-(5-isopropylpyridazin-3-yl)-7-(1-((1-methylpiperidin-4-yl)methyl)-1H-pyrazol-4-yl)-1,5-naphthyridine-2-amine]	< 1 µM	< 1 µM	≥ 25 µM	–
CC(C)c1cnnc(Nc2ccc3ncc(-c4cnn(CCCN5[C@H](C)CCC[C@@H]5C)c4)cc3n2)c1 [Example 0432]	< 1 µM	< 1 µM	≥ 25 µM	–
CC(C)c1cnnc(Nc2ccc3ncc(-c4cnn(CC(=O)N(C)C)c4)cc3n2)c1 [Example 0549, 2-(4-(6-((5-Isopropylpyridazin-3-yl)amino)-1,5-naphthyridin-3-yl)-1H-pyrazol-1-yl)-N,N-dimethylacetamide]	< 1 µM	< 1 µM	≥ 25 µM	–
CC(C)c1cnnc(Nc2ccc3ncc(-c4cnn(CCCN5CCOCC5(C)C)c4)cc3n2)c1 [Example 0657]	< 1 µM	< 1 µM	≥ 25 µM	–
CC(C)c1cnnc(Nc2ccc3ncc(-c4cnn(C5CN(C)C5)c4)cc3n2)c1 [Example 0490]	< 1 µM	< 1 µM	≥ 25 µM	–
CC(C)c1cnnc(Nc2ccc3ncc(-c4cnn(CCCN5C[C@@H](C)O[C@H](C)C5)c4)cc3n2)c1 [Example 0614]	< 1 µM	< 1 µM	≥ 25 µM	–
CC(C)c1cnnc(Nc2ccc3ncc(-c4cnn(CCCN5CCOC[C@@H]5C)c4)cc3n2)c1 [Example 0650]	< 1 µM	< 1 µM	≥ 25 µM	–
CC(C)c1cnnc(Nc2ccc3ncc(-c4cnn(CCCN5CCCC5=O)c4)cc3n2)c1 [Example 0422]	< 1 µM	< 1 µM	≥ 25 µM	–
CC(=O)NC1CN(CCCn2cc(-c3cnc4ccc(Nc5cc(C(C)C)cnn5)nc4c3)cn2)C1 [Example 0682, N-(1-(3-(4-(6-((5-isopropylpyridazin-3-yl)amino)-1,5-naphthyridin-3-yl)-1H-pyrazol-1-yl)propyl)azetidin-3-yl)acetamide]	< 1 µM	< 1 µM	≥ 25 µM	–
CC(C)c1cnnc(Nc2ccc3ncc(-c4cnn(CCCN5C[C@@H](C)O[C@@H](C)C5)c4)cc3n2)c1 [Example 0615]	< 1 µM	< 1 µM	≥ 25 µM	–
CC(C)c1cnnc(Nc2ccc3ncc(-c4cnn(CCCN5CC(O)C5)c4)cc3n2)c1 [Example 0629]	< 1 µM	< 1 µM	≥ 25 µM	–
CC(C)c1cnnc(Nc2ccc3ncc(-c4cnn(CCC(C)N5CCOCC5)c4)cc3n2)c1 (stereo not drawn) [Example 0418, N-(5-isopropylpyridazin-3-yl)-7-(1-(3-morpholinobutyl)-1H-pyrazol-4-yl)-1,5-naphthyridine-2-amine]	< 1 µM	< 1 µM	≥ 25 µM	–
CC(C)c1cnnc(Nc2ccc3ncc(-c4cnn(CCCN5CC(NS(C)(=O)=O)C5)c4)cc3n2)c1 [Example 0697]	< 1 µM	< 1 µM	≥ 25 µM	–
COCC1COCCN1CCCn1cc(-c2cnc3ccc(Nc4cc(C(C)C)cnn4)nc3c2)cn1 (stereo not drawn) [Example 0691]	< 1 µM	< 1 µM	≥ 25 µM	–

Source: US9783536B2, “Nitrogen-containing heterocyclic compound or salt thereof” (FUJIFILM Corporation, priority 2013, dated 2017)
